Assay results: ChEMBL document CHEMBL1131398, “First synthesis of alternating SATE-phosphotriester/phosphodiester prooligonucleotides on solid support” (Bioorg Med Chem Lett, 1998)

Legend:
[1] = Half-life in the presence of pig liver esterase(PLE) was evaluated.; assay type: ADME, tissue-based, Sus scrofa
[2] = Lipophilicity of compound evaluated by HPLC retention time on reverse phase C18 column; assay type: physicochemical
[3] = Half-life in the presence of total cell extract(TCE) was evaluated.; assay type: ADME
[4] = Half-life in the presence of pig liver esterase(PLE) was evaluated; […]; assay type: ADME, Sus scrofa; conditions: in vitro

Row | SMILES | half-life [1] [min] | Retention time [2] [min] | half-life [3] [h] | T1/2 [4]
1 | CO[C@@H]1[C@H](OP(=O)(O)O)[C@@H](COP(=O)(O)O[C@H]2[C@@H](OC)[C@H](n3ccc(=O)[nH]c3=O)O[C@@H]2COP(=O)(O)O[C@H]2[C@@H](OC)[C@H](n3ccc(=O)[nH]c3=O)O[C@@H]2COP(=O)(OCCSC(=O)C(C)(C)C)O[C@H]2C[C@H](n3cc(C)c(=O)[nH]c3=O)O[C@@H]2COP(=O)(OCCSC(=O)C(C)(C)C)O[C@H]2C[C@H](n3cc(C)c(=O)[nH]c3=O)O[C@@H]2COP(=O)(OCCSC(=O)C(C)(C)C)O[C@H]2C[C@H](n3cc(C)c(=O)[nH]c3=O)O[C@@H]2COP(=O)(OCCSC(=O)C(C)(C)C)O[C@H]2C[C@H](n3cc(C)c(=O)[nH]c3=O)O[C@@H]2COP(=O)(OCCSC(=O)C(C)(C)C)O[C@H]2C[C@H](n3cc(C)c(=O)[nH]c3=O)O[C@@H]2COP(=O)(OCCSC(=O)C(C)(C)C)O[C@H]2C[C@H](n3cc(C)c(=O)[nH]c3=O)O[C@@H]2COP(=O)(O)O[C@H]2[C@@H](OC)[C@H](n3cc(C)c(=O)[nH]c3=O)O[C@@H]2COP(=O)(O)O[C@H]2[C@@H](OC)[C@H](n3ccc(=O)[nH]c3=O)O[C@@H]2COP(=O)(O)O[C@H]2[C@@H](OC)[C@H](n3ccc(=O)[nH]c3=O)O[C@@H]2CO)O[C@H]1n1ccc(=O)[nH]c1=O (stereo not given in full) | 5 | 54.7 | 0.25 | 
2 | Cc1cn([C@H]2C[C@H](OP(=O)(O)S)[C@@H](COP(=O)(OCCSC(=O)C(C)(C)C)O[C@H]3C[C@H](n4cc(C)c(=O)[nH]c4=O)O[C@@H]3COP(=O)(S)O[C@H]3C[C@H](n4cc(C)c(=O)[nH]c4=O)O[C@@H]3COP(=O)(OCCSC(=O)C(C)(C)C)O[C@H]3C[C@H](n4cc(C)c(=O)[nH]c4=O)O[C@@H]3COP(=O)(S)O[C@H]3C[C@H](n4cc(C)c(=O)[nH]c4=O)O[C@@H]3COP(=O)(OCCSC(=O)C(C)(C)C)O[C@H]3C[C@H](n4cc(C)c(=O)[nH]c4=O)O[C@@H]3COP(=O)(S)O[C@H]3C[C@H](n4cc(C)c(=O)[nH]c4=O)O[C@@H]3COP(=O)(OCCSC(=O)C(C)(C)C)O[C@H]3C[C@H](n4cc(C)c(=O)[nH]c4=O)O[C@@H]3COP(=O)(S)O[C@H]3C[C@H](n4cc(C)c(=O)[nH]c4=O)O[C@@H]3COP(=O)(OCCSC(=O)C(C)(C)C)O[C@H]3C[C@H](n4cc(C)c(=O)[nH]c4=O)O[C@@H]3COP(=O)(S)O[C@H]3C[C@H](n4cc(C)c(=O)[nH]c4=O)O[C@@H]3COP(=O)(OCCSC(=O)C(C)(C)C)O[C@H]3C[C@H](n4cc(C)c(=O)[nH]c4=O)O[C@@H]3CO)O2)c(=O)[nH]c1=O (stereo not given in full) |  | 51.9 | 3 | Stable
3 | Cc1cn([C@H]2C[C@H](OP(=O)(O)O)[C@@H](COP(=O)(OCCSC(=O)C(C)(C)C)O[C@H]3C[C@H](n4cc(C)c(=O)[nH]c4=O)O[C@@H]3COP(=O)(O)O[C@H]3C[C@H](n4cc(C)c(=O)[nH]c4=O)O[C@@H]3COP(=O)(OCCSC(=O)C(C)(C)C)O[C@H]3C[C@H](n4cc(C)c(=O)[nH]c4=O)O[C@@H]3COP(=O)(O)O[C@H]3C[C@H](n4cc(C)c(=O)[nH]c4=O)O[C@@H]3COP(=O)(OCCSC(=O)C(C)(C)C)O[C@H]3C[C@H](n4cc(C)c(=O)[nH]c4=O)O[C@@H]3COP(=O)(O)O[C@H]3C[C@H](n4cc(C)c(=O)[nH]c4=O)O[C@@H]3COP(=O)(OCCSC(=O)C(C)(C)C)O[C@H]3C[C@H](n4cc(C)c(=O)[nH]c4=O)O[C@@H]3COP(=O)(O)O[C@H]3C[C@H](n4cc(C)c(=O)[nH]c4=O)O[C@@H]3COP(=O)(OCCSC(=O)C(C)(C)C)O[C@H]3C[C@H](n4cc(C)c(=O)[nH]c4=O)O[C@@H]3COP(=O)(O)O[C@H]3C[C@H](n4cc(C)c(=O)[nH]c4=O)O[C@@H]3COP(=O)(OCCSC(=O)C(C)(C)C)O[C@H]3C[C@H](n4cc(C)c(=O)[nH]c4=O)O[C@@H]3CO)O2)c(=O)[nH]c1=O (stereo not given in full) |  | 48.8 | 1 | Stable
4 | Cc1cn([C@H]2C[C@H](OP(=O)(O)OC[C@H]3O[C@@H](n4cc(C)c(=O)[nH]c4=O)C[C@@H]3OP(=S)(OCCSC(=O)C(C)(C)C)OC[C@H]3O[C@@H](n4cc(C)c(=O)[nH]c4=O)C[C@@H]3OP(=O)(O)OC[C@H]3O[C@@H](n4cc(C)c(=O)[nH]c4=O)C[C@@H]3OP(=S)(OCCSC(=O)C(C)(C)C)OC[C@H]3O[C@@H](n4cc(C)c(=O)[nH]c4=O)C[C@@H]3OP(=O)(O)OC[C@H]3O[C@@H](n4cc(C)c(=O)[nH]c4=O)C[C@@H]3OP(=S)(OCCSC(=O)C(C)(C)C)OC[C@H]3O[C@@H](n4cc(C)c(=O)[nH]c4=O)C[C@@H]3OP(=O)(O)OC[C@H]3O[C@@H](n4cc(C)c(=O)[nH]c4=O)C[C@@H]3OP(=S)(OCCSC(=O)C(C)(C)C)OC[C@H]3O[C@@H](n4cc(C)c(=O)[nH]c4=O)C[C@@H]3OP(=O)(O)OC[C@H]3O[C@@H](n4cc(C)c(=O)[nH]c4=O)C[C@@H]3OP(=S)(OCCSC(=O)C(C)(C)C)OC[C@H]3O[C@@H](n4cc(C)c(=O)[nH]c4=O)C[C@@H]3OP(=O)(O)OC[C@H]3O[C@@H](n4cc(C)c(=O)[nH]c4=O)C[C@@H]3OP(O)(=S)OCCSC(=O)C(C)(C)C)[C@@H](CO)O2)c(=O)[nH]c1=O (stereo not given in full) |  | 51.7 | 2.5 | Stable
5 | Cc1cn([C@H]2C[C@H](OP(=O)(O)S)[C@@H](COP(=S)(OCCSC(=O)C(C)(C)C)O[C@H]3C[C@H](n4cc(C)c(=O)[nH]c4=O)O[C@@H]3COP(=O)(S)O[C@H]3C[C@H](n4cc(C)c(=O)[nH]c4=O)O[C@@H]3COP(=S)(OCCSC(=O)C(C)(C)C)O[C@H]3C[C@H](n4cc(C)c(=O)[nH]c4=O)O[C@@H]3COP(=O)(S)O[C@H]3C[C@H](n4cc(C)c(=O)[nH]c4=O)O[C@@H]3COP(=S)(OCCSC(=O)C(C)(C)C)O[C@H]3C[C@H](n4cc(C)c(=O)[nH]c4=O)O[C@@H]3COP(=O)(S)O[C@H]3C[C@H](n4cc(C)c(=O)[nH]c4=O)O[C@@H]3COP(=S)(OCCSC(=O)C(C)(C)C)O[C@H]3C[C@H](n4cc(C)c(=O)[nH]c4=O)O[C@@H]3COP(=O)(S)O[C@H]3C[C@H](n4cc(C)c(=O)[nH]c4=O)O[C@@H]3COP(=S)(OCCSC(=O)C(C)(C)C)O[C@H]3C[C@H](n4cc(C)c(=O)[nH]c4=O)O[C@@H]3COP(=O)(S)O[C@H]3C[C@H](n4cc(C)c(=O)[nH]c4=O)O[C@@H]3COP(=S)(OCCSC(=O)C(C)(C)C)O[C@H]3C[C@H](n4cc(C)c(=O)[nH]c4=O)O[C@@H]3CO)O2)c(=O)[nH]c1=O (stereo not given in full) |  | 58.4 | 17 | Stable
